Experiment [1] addresses T1, Estrogen receptor (Homo sapiens) (UniProt P03372).
T1 sequence (whole entry): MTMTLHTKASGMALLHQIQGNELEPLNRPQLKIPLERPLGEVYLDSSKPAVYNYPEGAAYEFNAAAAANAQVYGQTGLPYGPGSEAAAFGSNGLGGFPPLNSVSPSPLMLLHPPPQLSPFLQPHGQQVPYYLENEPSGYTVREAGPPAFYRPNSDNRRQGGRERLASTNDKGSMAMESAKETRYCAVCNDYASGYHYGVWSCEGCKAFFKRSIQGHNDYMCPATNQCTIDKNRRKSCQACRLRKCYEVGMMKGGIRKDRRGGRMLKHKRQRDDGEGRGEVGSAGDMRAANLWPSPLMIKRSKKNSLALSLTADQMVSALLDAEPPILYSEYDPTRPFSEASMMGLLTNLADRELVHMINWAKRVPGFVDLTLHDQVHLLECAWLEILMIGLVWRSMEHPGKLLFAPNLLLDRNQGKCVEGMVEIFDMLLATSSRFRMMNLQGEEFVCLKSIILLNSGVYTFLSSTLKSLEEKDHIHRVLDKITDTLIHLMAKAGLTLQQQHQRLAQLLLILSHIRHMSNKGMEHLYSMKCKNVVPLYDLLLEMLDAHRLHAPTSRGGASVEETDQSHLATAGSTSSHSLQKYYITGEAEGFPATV
Conditions: MCF7, 10 uM.

The target of experiment [2] is T1, Estrogen receptor (Homo sapiens). The note with it: MCF7, 25 uM.

Each structure is given as a SMILES string.

The term inhibition denotes the relative decrease from the control value, in per cent. Low readings indicate little suppression, high ones strong suppression. For the compound `CC(C)COc1ccc2c(=O)c(-c3ccc(O)cc3)coc2c1`, the results for the inhibition in experiment [1] and in experiment [2] were 60.5% and 91.3%, respectively.
In experiment [2], `CCCCCCOc1ccc2c(=O)c(-c3ccc(O)cc3)coc2c1` yielded an inhibition of 46.4%.
`CC1(C)C=Cc2c(ccc3c(=O)c(-c4ccc(O)cc4)coc23)O1`: the inhibition in experiment [1] worked out at 54.6%; in experiment [2], 100%.
`O=c1c(-c2ccc(O)cc2)coc2cc(O)ccc12`: the inhibition in experiment [1] was found to be 17.2%.
For `CC(C)Oc1ccc2c(=O)c(-c3ccc(O)cc3)coc2c1`, the inhibition in experiment [1] is 33.4%; in experiment [2], 68.1%.
In experiment [2], `CCCOc1ccc2c(=O)c(-c3ccc(O)cc3)coc2c1` came in with an inhibition of 41.4%.
Regarding `CCOc1ccc2c(=O)c(-c3ccc(O)cc3)coc2c1`, in experiment [2], the inhibition turned out to be 18.8%.
Consider `O=c1c(-c2ccc(O)cc2)coc2cc(OC3CCCC3)ccc12`, for which the figures for the inhibition in experiment [1] and in experiment [2] were 54.1% and 89.8%, respectively.
Compound `CCCCOc1ccc2c(=O)c(-c3ccc(O)cc3)coc2c1` came in with an inhibition in experiment [2] of 49.8%.
Still for that read-out and setting: next, `COc1ccc2c(=O)c(-c3ccc(O)cc3)coc2c1`: 33.2%.

The values are drawn from ChEMBL document CHEMBL1212895.
